How the values were obtained:
[1] = type: physicochemical
Procedure: Synthesis of Compound 1: Selenium (31.0 mg, 0.39 mmol, 1.00 equiv.) was suspended in an aqueous solution of 1M NaOH (6 mL) under Ar atmosphere. To the solution, Rongalite (i.e., sodium hydroxymethanesulfinate, Na^+HOCH2SO2^−) (120.0 mg, 0.78 mmol, 2.00 equiv.) was added and stirred vigorously. Then, the reaction solution was heated to 80° C. using an oil bath. After reacting for 0.5 h, hepta-4,6-diynoic acid (44.0 mg, 0.36 mmol, 0.92 equiv.) in ethanol (4 mL) was added and the reaction mixture was reacted at 80° C. for an additional 5 h. The reaction was allowed to cool to room temperature and diluted with a saturated NH4Cl aqueous solution (10 mL). The solution was transferred to separatory funnel and extracted with EtOAc (20 mL×3). The combined organic layer was washed with brine (50 mL) and dried over MgSO4, filtered, concentrated, and purified by flash chromatography (20:1 hexanes:ethyl acetate to 10:1 to 5:1 to 2:1 to 1:1) to yield selenium compound 1 in 45% yield (36 mg). Isotopically pure compounds were also prepared by following the above described procedure.

[2] = system: viable peripheral blood mononuclear cells (PBMC); assay: Cell viability after SeMal incubation; type: cell-based; settings: at working concentrations
Procedure: (§1) 3×10^6 viable, paraformaldehyde-fixed, or fixed and permeabilized peripheral blood mononuclear cells (PBMC) were incubated for 15 min with the indicated concentration of SeMal reagent in 0.2 ml PBS. Binding reactions were stopped by the addition of 5-fold excess volume of Cell Staining Buffer (Fluidigm) followed by incubation with Iridium using standard protocols. Data representations are from gated viable single cells. Cell viability […] incubation (for the viable cell condition) was >98%.

[3] = system: peripheral blood mononuclear cells (PBMC); assay: Labeling of PBMC with SeMal reagents, mass cytometry; type: cell-based; settings: viable, fixed and fixed and permeabilized PBMC
Procedure: as §1

Compound | stability on storage [1] | toxicity when labeling viable cells [2] | labeling of PBMC [3]
O=C(O)CCc1ccc[se]1 [Compound 1] | sufficient stability |  | 
O=C(CCc1ccc[se]1)NCCN1C(=O)C=CC1=O [Compound 2] |  | non-toxic | effectively label

— patent US20240262818A1, “Selenium Maleimide Compounds And Uses Thereof” (THE UNIVERSITY OF NORTH CAROLINA AT CHAPEL HILL, priority 2021, published 2024)
